The values below come from patent US11643403B2 (ILDONG PHARMACEUTICAL CO., LTD., priority 2019, dated 2023).

A value given as a limit tells only on which side of the number the result lay.

A short description of series [1]: Intravenous glucose tolerance test (ivGTT) via oral administration, plasma insulin ELISA. The format is in vivo. Particulars: test substance 50 mg/5 mL/kg orally 60 minutes before glucose […] iv, maximum plasma insulin. The protocol:
Before performing the ivGTT, the monkeys to be used in the test were fasted for 16 hours. After the fasting, fasting blood sugar was measured on the day of the test, and then the monkeys were grouped to minimize blood sugar deviation. On 60 minutes before glucose administration (−60 minutes), each of the monkeys was fixed on a correction chair, and the test substance (50 mg/5 mL/kg) was administered orally using a catheter for oral administration. The monkey fixed on the correction chair was anesthetized, and glucose (0.25 g/kg, 50% dextrose solution 0.5 mL/kg) was intravenously administered through a tube catheter inserted into the vein. […] The separated plasma samples were stored in a frozen state until insulin analysis.
(§1) The frozen plasma samples were slowly thawed on ice. An ELISA test was performed according to a protocol provided with a Monkey insulin ELISA kit (LSBio, Cat No. LS-F10306). An insulin concentration was calculated by drawing a standard curve using the absorbance of the insulin standard and applying the absorbance of each measured sample thereto.

For series [2], the target named is GLP-1 receptor CHO-K1 cells (Homo sapiens (Human), UniProt P43220). As to the kind of experiment: cAMP assay (HTRF, CISBIO kit). In kind it is cell-based. Particulars: for Emax: CHO-K1, cAMP stimulation ratio, Exendin-4 = 100%. The procedure: A cAMP assay test was performed according to a method optimized based on a protocol provided by a cAMP assay kit manufacturer (CISBIO). […] The cells were incubated at room temperature for 7 minutes. A cAMP-d2 conjugate reagent was prepared by mixing a cAMP conjugate with an elution buffer at a ratio of 1:4. An anti-cAMP cryptate conjugate reagent was prepared by mixing a […] with an elution buffer at a ratio of 1:4. Then, […] of the cAMP-d2 conjugate reagent was added to each of the wells. Subsequently, […] of the anti-cAMP cryptate conjugate reagent was added to each of the wells.
In general terms: Changes in cAMP serve as a functional read-out for many G protein-coupled receptors.

The target of series [3] is hERG (human ether-a-go-go related gene) potassium channel (Homo sapiens (Human), UniProt Q12809). Put plainly: hERG analysis, automatic whole-cell patch clamp (QPatch 48 HT). Particulars: hERG-expressing CHO-K1 cell line, 1-100 μM, room temperature. The format is cell-based. The protocol:
The inhibition of activity of hERG (human ether-a-go-go related gene) potassium channel by the compounds was evaluated by using an automatic whole-cell patch clamp system (QPatch 48 HT, Sophion Bioscience) that can directly measure the flow of ions through the potassium channel in cells. A CHO-K1 cell line stably expressing human hERG cDNA (Kv11.1, KCNH2) was used. The composition of the intracellular solution (mM) used for the analysis is 70 KF, 60 KCl, 15 NaCl, 5 HEPES, 5 EGTA, 5 MgATP, pH 7.3 by KOH.
The hERG-expressing CHO-K1 cell line was treated with each compound at five concentrations (1, 3, 10, 30 and 100 μM), and incubated with each test concentration for 5 minutes in duplicate. All experiments were conducted at room temperature. Change in current amplitude through the hERG channel was recorded every 8 seconds.
Stock solution for each compound is prepared in DMSO at 300× the final assay concentrations, and stored at −20° C. until the day of assay. On the day of the experiment, the stock was diluted into an extracellular solution to make final treatment concentration.
The change in hERG current before and after treatment with the test substance was recorded using the automatic whole cell patch clamp, and the hERG inhibition percentage (%) was calculated based on the control group.
In this calculation, an inhibitor dose-response curve analyzed by using a curve fitting program that uses a 4-parameter logistic dose response equation was used.
(hERG is a cardiac potassium channel; its block is linked to QT prolongation.)

Series [4] in a line: Intravenous glucose tolerance test (ivGTT) via intravenous administration, plasma insulin ELISA. The format is in vivo. Particulars: test substance 1 mg/mL/kg intravenously, maximum plasma insulin. The procedure:
Before the intravenous glucose tolerance test (ivGTT) was performed, monkeys to be used in the test were fasted for 16 hours. After the fasting, fasting blood sugar was measured on the day of the test, and the monkeys were grouped to minimize blood sugar deviation. Each of the monkeys was fixed on a correction chair and anesthetized. A tube catheter was inserted into a saphenous vein of the monkey immediately before glucose administration (0 minute), and the test substance (1 mg/mL/kg) was administered intravenously. After the drug administration, glucose (0.25 g/kg, 50% dextrose solution 0.5 mL/kg) was intravenously administered through the tube catheter inserted into the vein. […] The separated plasma samples were stored in a frozen state until insulin analysis.
as §1
(In general: In an ELISA, binding on a coated surface is turned into a signal by an enzyme label.)

Sequence of GLP-1 receptor CHO-K1 cells (P43220 24-463): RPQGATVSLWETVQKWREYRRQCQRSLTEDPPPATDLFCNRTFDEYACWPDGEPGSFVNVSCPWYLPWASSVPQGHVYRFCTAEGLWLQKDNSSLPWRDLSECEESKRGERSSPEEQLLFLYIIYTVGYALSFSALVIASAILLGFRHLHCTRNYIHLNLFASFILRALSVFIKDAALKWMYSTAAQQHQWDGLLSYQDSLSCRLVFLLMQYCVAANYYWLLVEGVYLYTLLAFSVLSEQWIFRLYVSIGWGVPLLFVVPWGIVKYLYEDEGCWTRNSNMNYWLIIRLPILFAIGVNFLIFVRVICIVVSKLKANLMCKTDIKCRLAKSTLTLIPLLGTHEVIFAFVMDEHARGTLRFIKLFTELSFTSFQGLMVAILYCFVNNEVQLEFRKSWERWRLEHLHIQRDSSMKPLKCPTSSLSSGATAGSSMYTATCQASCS
Sequence of hERG (human ether-a-go-go related gene) potassium channel (Q12809 whole entry): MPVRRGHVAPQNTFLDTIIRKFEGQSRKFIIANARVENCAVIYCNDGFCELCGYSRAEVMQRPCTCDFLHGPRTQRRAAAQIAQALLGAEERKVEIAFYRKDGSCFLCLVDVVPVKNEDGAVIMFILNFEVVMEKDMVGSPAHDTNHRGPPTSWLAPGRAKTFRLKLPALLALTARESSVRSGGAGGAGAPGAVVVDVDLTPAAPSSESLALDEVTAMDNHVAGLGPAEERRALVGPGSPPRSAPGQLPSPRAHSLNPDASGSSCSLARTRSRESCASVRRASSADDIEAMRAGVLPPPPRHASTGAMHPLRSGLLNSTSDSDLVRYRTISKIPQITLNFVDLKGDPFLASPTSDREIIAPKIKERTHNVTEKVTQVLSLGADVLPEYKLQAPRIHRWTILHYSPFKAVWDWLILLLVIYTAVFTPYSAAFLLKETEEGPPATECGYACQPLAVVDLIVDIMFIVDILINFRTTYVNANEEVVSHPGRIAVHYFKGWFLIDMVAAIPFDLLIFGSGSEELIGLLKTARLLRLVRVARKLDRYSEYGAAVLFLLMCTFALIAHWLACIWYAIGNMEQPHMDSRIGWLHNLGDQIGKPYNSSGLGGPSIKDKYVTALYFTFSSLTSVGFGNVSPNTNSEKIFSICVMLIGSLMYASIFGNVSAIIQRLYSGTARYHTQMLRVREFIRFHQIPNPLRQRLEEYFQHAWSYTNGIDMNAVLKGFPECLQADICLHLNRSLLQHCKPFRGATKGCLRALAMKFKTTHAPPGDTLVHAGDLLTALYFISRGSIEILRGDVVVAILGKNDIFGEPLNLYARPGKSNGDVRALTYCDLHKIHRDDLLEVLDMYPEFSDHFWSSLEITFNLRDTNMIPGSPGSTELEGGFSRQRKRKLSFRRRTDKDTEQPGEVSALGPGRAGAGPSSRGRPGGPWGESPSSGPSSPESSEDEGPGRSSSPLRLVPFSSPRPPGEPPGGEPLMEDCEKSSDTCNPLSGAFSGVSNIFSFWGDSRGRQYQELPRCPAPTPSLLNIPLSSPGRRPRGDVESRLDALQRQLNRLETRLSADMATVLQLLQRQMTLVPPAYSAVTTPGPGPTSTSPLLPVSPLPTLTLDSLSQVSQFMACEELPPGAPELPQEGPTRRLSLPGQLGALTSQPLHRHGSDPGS

Take `C[C@H]1CN(c2cccc(OCc3ccc(C#N)cn3)n2)CCN1Cc1nc2ccc(C(=O)O)cc2n1C[C@@H]1CCO1` [Example 1, 2-(((S)-4-(6-((5-cyanopyridin-2-yl)methoxy)pyridin-2-yl)-2-methylpiperazin-1-yl)methyl)-1-(((S)-oxetan-2-yl)methyl)-1H-benzo[d]imidazole-6-carboxylic acid]: the “Monkey ivGTT (po) insulinmax” value in series [1] is “+ (a maximum insulin concentration is 50˜100 IU/mL)”. In addition, in series [2], the EC50 was less than 50 nM and the Emax is 104%. The IC50 in series [3] was more than 100000 nM. In series [4], the “Monkey ivGTT (iv) insulinmax (IU/mL)” value is listed as “++ (a maximum insulin concentration is greater than 250 IU/mL)”.
Take `N#Cc1ccc(COc2cccc(N3CCN(Cc4nc5ccc(C(=O)O)cc5n4C[C@@H]4CCO4)CC3)n2)nc1` [Example 2, (S)-2-((4-(6-((5-cyanopyridin-2-yl)methoxy)pyridin-2-yl)piperazin-1-yl)methyl)-1-(oxetan-2-ylmethyl)-1H-benzo [d]imidazole-6-carboxylic acid]: the “Monkey ivGTT (po) insulinmax” value in series [1] is on record as “++ (a maximum insulin concentration is greater than 100 IU/mL)”. In series [2], the EC50 was less than 50 nM and the Emax worked out at 108%. Besides, the IC50 in series [3] is more than 100000 nM.
With `N#Cc1ccc(COc2cccc(N3CCN(Cc4nc5ccc(C(=O)O)nc5n4C[C@@H]4CCO4)CC3)n2)nc1` [Example 5, (S)-2-((4-(6-((5-cyanopyridin-2-yl)methoxy)pyridin-2-yl)piperazin-1-yl)methyl)-3-(oxetane-2-ylmethyl)-3H-imidazo[4,5-b]pyridine-5-carboxylic acid], in series [2], the EC50 is 50 to 100 nM and the Emax was 111%.
With `C[C@H]1CN(c2cccc(OCc3ccc(C#N)cn3)n2)CCN1Cc1nc2ccc(C(=O)O)nc2n1C[C@@H]1CCO1` [Example 6, 2-(((S)-4-(6-((5-cyanopyridin-2-yl)methoxy)pyridin-2-yl)-2-methylpiperazin-1-yl)methyl)-3-(((S)-oxetan-2-yl)methyl)-3H-imidazo[4,5-b]pyridine-5-carboxylic acid], in series [1], the “Monkey ivGTT (po) insulinmax” value is “+ (a maximum insulin concentration is 50˜100 IU/mL)”. Moreover, the IC50 in series [3] is more than 100000 nM. Further, the “Monkey ivGTT (iv) insulinmax (IU/mL)” value in series [4] was “++ (a maximum insulin concentration is greater than 250 IU/mL)”.
Consider `O=C(O)c1ccc2nc(CN3CCC(c4cccc(OCc5ncc(Cl)cc5F)c4)CC3)n(C[C@@H]3CCO3)c2c1` [Example 10, (S)-2-((4-(3-((5-chloro-3-fluoropyridin-2-yl)methoxy)phenyl)piperidin-1-yl)methyl)-1-(oxetane-2-ylmethyl)-1H-benzo[d]imidazole-6-carboxylic acid], for which, in series [2], the EC50 lay within 50 to 100 nM and the Emax came out at 96.4%.
With `N#Cc1ccc(COc2cccc(N3CCN(Cc4nc5ccc(C(=O)O)nc5n4C[C@@H]4CCO4)CC3)c2)nc1` [Example 13, (S)-2-((4-(3-((5-cyanopyridin-2-yl)methoxy)phenyl)piperazin-1-yl)methyl)-3-(oxetan-2-ylmethyl)-3H-imidazo[4,5-b]pyridine-5-carboxylic acid], in series [2], the EC50 is less than 50 nM and the maximal effect (Emax) turned out to be 128%. The IC50 in series [3] is more than 100000 nM. Further, in series [4], the “Monkey ivGTT (iv) insulinmax (IU/mL)” value is on record as “+ (a maximum insulin concentration is 200˜250 IU/mL)”.
For `N#Cc1ccc(COc2cccc(N3CCN(Cc4nc5ccc(C(=O)O)cc5n4C[C@@H]4CCO4)CC3)c2)nc1` [Example 14, (S)-2-((4-(3-((5-cyanopyridin-2-yl)methoxy)phenyl)piperazin-1-yl)methyl)-1-(oxetan-2-ylmethyl)-1H-benzo[d]imidazole-6-carboxylic acid] the same measures were less than 50 nM, 91.4%, more than 100000 nM and “+ (a maximum insulin concentration is 200˜250 IU/mL)”.
On to `O=C(O)c1ccc2nc(CN3CCN(c4cccc(OCc5ncc(Cl)cc5F)n4)CC3)n(C[C@@H]3CCO3)c2c1` [Example 16, (S)-2-((4-(6-((5-chloro-3-fluoropyridin-2-yl)methoxy)pyridin-2-yl)piperazin-1-yl)methyl)-1-(oxetan-2-ylmethyl)-1H-benzo[d]imidazole-6-carboxylic acid], for which, in series [2], the EC50 is less than 50 nM and the Emax came out at 102%. In series [3], this compound registered an IC50 of more than 100000 nM.
With `O=C(O)c1ccc2nc(CN3CCN(c4cccc(OCc5ccc(Cl)cn5)n4)CC3)n(C[C@@H]3CCO3)c2c1` [Example 17, (S)-2-((4-(6-((5-chloropyridin-2-yl)methoxy)pyridin-2-yl)piperazin-1-yl)methyl)-1-(oxetane-2-ylmethyl)-1H-benzo [d]imidazole-6-carboxylic acid], in series [2], the EC50 is less than 50 nM and the Emax worked out at 101%. The compound further registered an IC50 in series [3] of more than 100000 nM. In series [4], the “Monkey ivGTT (iv) insulinmax (IU/mL)” value is listed as “+ (a maximum insulin concentration is 200˜250 IU/mL)”.

As usually defined, the EC50 is the concentration needed to bring the measured effect to its halfway point. Usually Emax stands for the size of the effect at its maximum, as opposed to the concentration needed. By IC50 is commonly meant the concentration at which inhibition is half-maximal.
